# Results published in patent US12527886B2, “Radiopharmaceuticals and composition for thrombus imaging” (THE ASAN FOUNDATION, priority 2020, dated 2026).
# Legend:
# [1] = Stability of Tc-99m labeled compound, labeling purity by HPLC; type: physicochemical; settings: Ex 3-3
# [2] = as above; type: physicochemical; settings: for radiochemical purity: cysteine and VB1, until 4 hours (Table 5)
# Experimental: 2 mL of Tc-99m was added dropwise to a lyophilized vial including 0.1 mg of GP-104, 15 μg of SnCl2, and 10 μg of cysteine, the vial was allowed to stand at room temperature for 10 minutes, and the reaction was terminated by adjusting pH to 7 using a NaOH solution. Labeling purity was confirmed to be 93.21% by HPLC (analysis conditions: Luna C18 250×4.6 mm, phosphate buffer:acetonitrile (100:0, 0 to 5 minutes; 80:20, 5 to 10 minutes; 80:20, 17 minutes; 100:0, 17.1 minutes). 100:0. 20 min), 1.0 mL/min, UV=280 nm).
# In order to confirm the effect of cysteine addition after the reaction, the following experiment was performed: 0.1 mg of GP-104 was dissolved in water for injection, the pH was adjusted to about 3.5 when 10 μL of SnCl2 (1.5 mg/mL) and 2 mL of Tc-99m were added thereto, and the resulting mixture was allowed to stand at room temperature for 10 minutes. The reaction was terminated by adjusting the pH to 7 using a NaOH solution and 10 μL of cysteine (1.0 mg/mL). Labeling purity was confirmed to be 91.4% using HPLC in the same manner as in Example 2-7.
# After 0.1 mg of GP-104 was dissolved in water for injection, pH was adjusted to about 3.5 and the resulting solution was allowed to stand at room temperature for 10 minutes when 10 μL of SnCl2 (1.5 mg/mL), 10 μL of cysteine (1.0 mg/mL) and 2 mL of Tc-99m were added thereto, and the reaction was terminated by adjusting the pH to 7 using a NaOH solution. Labeling purity was confirmed to be 94.84% using HPLC in the same manner as in Example 2-7.
# HCl and NaOH was additionally added dropwise to the solution of Example 2-8 to perform a stability evaluation by adjusting the final pH of the solution to acidic (pH 5.5) and basic (pH 8.5) conditions, and labeling purity was confirmed using HPLC in the same manner as in Example 2-7.
# HCl and NaOH was additionally added dropwise to the solution of Example 2-9 to perform a stability evaluation by adjusting the final pH of the solution to acidic (pH 5.5) and basic (pH 8.5) conditions, and labeling purity was confirmed using HPLC in the same manner as in Example 2-7.
# HCl and NaOH was additionally added dropwise to the solution of Example 2-10 to perform a stability evaluation by adjusting the final pH of the solution to acidic (pH 5.5) and basic (pH 8.5) conditions, and labeling purity was confirmed using HPLC in the same manner as in Example 2-7.
# 0.1 mg of GP-105 was dissolved in water for injection, the pH was adjusted to about 3.5 when 10 μL of SnCl2 (1.5 mg/mL) and 2 mL of Tc-99m were added thereto, and the resulting mixture was allowed to stand at room temperature for 10 minutes. The reaction was terminated by adjusting the pH to 7 using a NaOH solution and 10 μL of cysteine (1.0 mg/mL). Labeling purity was confirmed to be 98.1% using HPLC in the same manner as in Example 2-7.
# HCl and NaOH was additionally added dropwise to the solution of Example 2-12 to perform a stability evaluation by adjusting the final pH of the solution to acidic (pH 5.5) and basic (pH 8.5) conditions, and labeling purity was confirmed using HPLC in the same manner as in Example 2-7.
# HCl and NaOH was additionally added dropwise to the solution of Example 2-13 to perform a stability evaluation by adjusting the final pH of the solution to acidic (pH 5.5) and basic (pH 8.5) conditions, and labeling purity was confirmed using HPLC in the same manner as in Example 2-7.
# HCl and NaOH was additionally added dropwise to the solution of Example 2-14 to perform a stability evaluation by adjusting the final pH of the solution to acidic (pH 5.5) and basic (pH 8.5) conditions, and labeling purity was confirmed using HPLC in the same manner as in Example 2-7.
compound,measurement,setting,value
O=C(O)C[C@H](NC(=O)[C@@H]1CCCN(C(=O)CCC2CCNCC2)C1)c1cncc(OCCNC(=O)CN2CCN3CCN(CC(=O)O)CC(=O)[O][99Tc+]([O]C(=O)C3)[O]C(=O)C2)c1 [[Tc-99m]GP-104],purity (HPLC),"[1]; addition of cysteine after reaction, pH 3, 3 hours",42.46%
same,purity (HPLC),"[1]; addition of cysteine before reaction, pH 3, 0 hour",95.6%
same,purity (HPLC),"[1]; addition of cysteine before reaction, pH 7, 3 hours",98.53%
same,Purity,"[2]; 165 nmol cysteine, acidic conditions, after 2 hours (Table 4)",≤ 90%
same,Purity,"[2]; 165 nmol cysteine, basic conditions, until 2 hours (Table 4)",< 90%
same,Purity,"[2]; 165 nmol cysteine, neutral conditions, even after 4 hours (Table 4)",≥ 90%
same,purity (HPLC),"[2]; Ex 3-3, addition of cysteine after reaction, pH 3, 0 hour",82.63%
same,purity (HPLC),"[2]; Ex 3-3, addition of cysteine after reaction, pH 3, 1 hour",70.01%
same,purity (HPLC),"[2]; Ex 3-3, addition of cysteine after reaction, pH 3, 2 hours",52.58%
same,purity (HPLC),"[2]; Ex 3-3, addition of cysteine after reaction, pH 3, 4 hours",30.38%
same,purity (HPLC),"[2]; Ex 3-3, addition of cysteine after reaction, pH 7, 0 hour",91.4%
same,purity (HPLC),"[2]; Ex 3-3, addition of cysteine after reaction, pH 7, 1 hour",91.42%
same,purity (HPLC),"[2]; Ex 3-3, addition of cysteine after reaction, pH 7, 2 hours",91.1%
same,purity (HPLC),"[2]; Ex 3-3, addition of cysteine after reaction, pH 7, 3 hours",90.3%
same,purity (HPLC),"[2]; Ex 3-3, addition of cysteine after reaction, pH 7, 4 hours",90.19%
same,purity (HPLC),"[2]; Ex 3-3, addition of cysteine before reaction, pH 3, 1 hour",92.7%
same,purity (HPLC),"[2]; Ex 3-3, addition of cysteine before reaction, pH 3, 2 hours",84.17%
same,purity (HPLC),"[2]; Ex 3-3, addition of cysteine before reaction, pH 3, 3 hours",76.77%
same,purity (HPLC),"[2]; Ex 3-3, addition of cysteine before reaction, pH 3, 4 hours",69.34%
same,purity (HPLC),"[2]; Ex 3-3, addition of cysteine before reaction, pH 7, 0 hour",94.84%
same,purity (HPLC),"[2]; Ex 3-3, addition of cysteine before reaction, pH 7, 1 hour",94.43%
same,purity (HPLC),"[2]; Ex 3-3, addition of cysteine before reaction, pH 7, 2 hours",97.66%
same,purity (HPLC),"[2]; Ex 3-3, addition of cysteine before reaction, pH 7, 4 hours",97.75%
same,radiochemical purity,[2]; acidic conditions,≥ 90%
same,radiochemical purity,[2]; basic conditions,≥ 80%
same,radiochemical purity,[2]; pH of 7,≥ 98%
same,Purity,"[2]; pH of 7 regardless of the timing of cysteine addition, even after 4 hours (text to Table 3)",≥ 90%
same,purity (HPLC),"[2]; solution of Example 2-8 (165 nmol cysteine), pH 5.5, 0 hr",95.26%
same,purity (HPLC),"[2]; solution of Example 2-8 (165 nmol cysteine), pH 5.5, 2 hr",91.45%
same,purity (HPLC),"[2]; solution of Example 2-8 (165 nmol cysteine), pH 5.5, 4 hr",89.28%
same,purity (HPLC),"[2]; solution of Example 2-8 (165 nmol cysteine), pH 7, 0 hr",95.26%
same,purity (HPLC),"[2]; solution of Example 2-8 (165 nmol cysteine), pH 7, 2 hr",91.19%
same,purity (HPLC),"[2]; solution of Example 2-8 (165 nmol cysteine), pH 7, 4 hr",91.61%
same,purity (HPLC),"[2]; solution of Example 2-8 (165 nmol cysteine), pH 8.5, 0 hr",95.26%
same,purity (HPLC),"[2]; solution of Example 2-8 (165 nmol cysteine), pH 8.5, 2 hr",79.83%
same,purity (HPLC),"[2]; solution of Example 2-8 (165 nmol cysteine), pH 8.5, 4 hr",51.77%
same,radiochemical purity (HPLC),"[2]; solution of Example 2-9 (82.5 nmol cysteine + 82.5 nmol VB1), pH 5.5, 0 hr",100%
same,radiochemical purity (HPLC),"[2]; solution of Example 2-9 (82.5 nmol cysteine + 82.5 nmol VB1), pH 5.5, 2 hr",92.72%
same,radiochemical purity (HPLC),"[2]; solution of Example 2-9 (82.5 nmol cysteine + 82.5 nmol VB1), pH 5.5, 4 hr",91.20%
same,radiochemical purity (HPLC),"[2]; solution of Example 2-9 (82.5 nmol cysteine + 82.5 nmol VB1), pH 7, 0 hr",100%
same,radiochemical purity (HPLC),"[2]; solution of Example 2-9 (82.5 nmol cysteine + 82.5 nmol VB1), pH 7, 2 hr",98.63%
same,radiochemical purity (HPLC),"[2]; solution of Example 2-9 (82.5 nmol cysteine + 82.5 nmol VB1), pH 7, 4 hr",98.18%
same,radiochemical purity (HPLC),"[2]; solution of Example 2-9 (82.5 nmol cysteine + 82.5 nmol VB1), pH 8.5, 0 hr",100%
same,radiochemical purity (HPLC),"[2]; solution of Example 2-9 (82.5 nmol cysteine + 82.5 nmol VB1), pH 8.5, 2 hr",83.08%
same,radiochemical purity (HPLC),"[2]; solution of Example 2-9 (82.5 nmol cysteine + 82.5 nmol VB1), pH 8.5, 4 hr",80.97%
same,radiochemical purity (HPLC),"[2]; solution of Example 2-10 (82.5 nmol cysteine + 82.5 nmol VB6), pH 5.5, 0 hr",97.24%
same,radiochemical purity (HPLC),"[2]; solution of Example 2-10 (82.5 nmol cysteine + 82.5 nmol VB6), pH 5.5, 2 hr",90.29%
same,radiochemical purity (HPLC),"[2]; solution of Example 2-10 (82.5 nmol cysteine + 82.5 nmol VB6), pH 5.5, 4 hr",90.65%
same,radiochemical purity (HPLC),"[2]; solution of Example 2-10 (82.5 nmol cysteine + 82.5 nmol VB6), pH 7, 0 hr",97.24%
same,radiochemical purity (HPLC),"[2]; solution of Example 2-10 (82.5 nmol cysteine + 82.5 nmol VB6), pH 7, 2 hr",95.61%
same,radiochemical purity (HPLC),"[2]; solution of Example 2-10 (82.5 nmol cysteine + 82.5 nmol VB6), pH 7, 4 hr",96.25%
same,radiochemical purity (HPLC),"[2]; solution of Example 2-10 (82.5 nmol cysteine + 82.5 nmol VB6), pH 8.5, 0 hr",97.24%
same,radiochemical purity (HPLC),"[2]; solution of Example 2-10 (82.5 nmol cysteine + 82.5 nmol VB6), pH 8.5, 2 hr",95.61%
same,radiochemical purity (HPLC),"[2]; solution of Example 2-10 (82.5 nmol cysteine + 82.5 nmol VB6), pH 8.5, 4 hr",91.19%
same,radiochemical purity (HPLC),"[2]; solution of Example 2-14 (82.5 nmol cysteine + 82.5 nmol VB6), pH 5.5, 0 hr",100%
same,radiochemical purity (HPLC),"[2]; solution of Example 2-14 (82.5 nmol cysteine + 82.5 nmol VB6), pH 5.5, 2 hr",97.24%
same,radiochemical purity (HPLC),"[2]; solution of Example 2-14 (82.5 nmol cysteine + 82.5 nmol VB6), pH 5.5, 4 hr",95.61%
same,radiochemical purity (HPLC),"[2]; solution of Example 2-14 (82.5 nmol cysteine + 82.5 nmol VB6), pH 7, 0 hr",100%
same,radiochemical purity (HPLC),"[2]; solution of Example 2-14 (82.5 nmol cysteine + 82.5 nmol VB6), pH 7, 2 hr",98.56%
same,radiochemical purity (HPLC),"[2]; solution of Example 2-14 (82.5 nmol cysteine + 82.5 nmol VB6), pH 7, 4 hr",98.2%
same,radiochemical purity (HPLC),"[2]; solution of Example 2-14 (82.5 nmol cysteine + 82.5 nmol VB6), pH 8.5, 0 hr",100%
same,radiochemical purity (HPLC),"[2]; solution of Example 2-14 (82.5 nmol cysteine + 82.5 nmol VB6), pH 8.5, 2 hr",92.21%
same,radiochemical purity (HPLC),"[2]; solution of Example 2-14 (82.5 nmol cysteine + 82.5 nmol VB6), pH 8.5, 4 hr",89.62%
